Values of other authors as cited in PubChem BioAssay AID1259410 (Chemical Carcinogenesis Research Information System (CCRIS), 2018).

System: rodent tumor promotion studies, tumor incidence
Assay: CCRIS tumor promotion studies

Compound: CCCCCCCCCCCCCC(=O)O[C@@H]1[C@@H](C)[C@@]2(O)[C@@H](C=C(CO)C[C@]3(O)C(=O)C(C)=C[C@@H]23)[C@@H]2C(C)(C)[C@]12OC(C)=O
- outcome (Carcinogen: 7,12-DIMETHYLBENZ(A)ANTHRACENE, Doses [Carcinogen]: IG TO MOTHERS, Route [Carcinogen]: GAVAGE, Route [Promoter]: DERMAL, Species: MOUSE, Strain/Sex: NMRI/MALE,FEMALE): integumentary system (skin); forestomach; stomach; liver; lung; colon; kidney; r
- outcome (Carcinogen: 7,12-DIMETHYLBENZ(A)ANTHRACENE, Doses [Carcinogen]: IG, Route [Carcinogen]: GAVAGE, Route [Promoter]: GAVAGE, Species: MOUSE, Strain/Sex: FEMALE): forestomach
- outcome (Carcinogen: 7,12-DIMETHYLBENZ(A)ANTHRACENE, Doses [Carcinogen]: TOP, Route [Carcinogen]: DERMAL, Route [Promoter]: DERMAL, Species: MOUSE, Strain/Sex: MALE,FEMALE): integumentary system (skin)
- outcome (Carcinogen: 7,12-DIMETHYLBENZ(A)ANTHRACENE, Doses [Carcinogen]: TRANS-PLACENTAL, Route [Carcinogen]: TRANS-PLACENTAL, Route [Promoter]: DERMAL, Species: MOUSE, Strain/Sex: NMRI/MALE,FEMALE): integumentary system (skin); lung; liver
- outcome (Carcinogen: 7,12-DIMETHYLBENZO[K]FLUORANTHENE, 95741-56-3, Doses [Carcinogen]: 4 UMOL (TOTAL DOSE) ADMINISTERED IN 10 SUBDOSES 1/2 D, Doses [Promoter]: 2.5 UG IN 0.1 ML ACETONE 3/WK FOR 30 WK BEGINNING 10 D POST CARCINOGEN TREATMENT (STUDY DURATION: 33 WK), Route [Carcinogen]: DERMAL, Route [Promoter]: DERMAL, Species: MOUSE, Strain/Sex: CRL:CD-1/FEMALE): skin: tumor
- outcome (Carcinogen: 7,12-DIMETHYLBENZ[A]ANTHRACENE-3,4-DIOL, 71964-72-2, Doses [Carcinogen]: 4, 10 NMOL ONCE, Doses [Promoter]: 0, 3.4 NMOL 2/WK FOR 19 WK BEGINNING 2 WK POST CARCINOGEN DOSE (STUDY DURATION: 21 WK), Route [Carcinogen]: DERMAL, Route [Promoter]: DERMAL, Species: MOUSE, Strain/Sex: SENCAR/FEMALE): skin: papilloma
- outcome (Carcinogen: 7,12-DIMETHYLBENZ[A]ANTHRACENE, 57-97-6, Doses [Carcinogen]: 1 NMOL IN 100 µL ACETONE, Doses [Promoter]: 2.16 NMOL IN 100 µL ACETONE 2/WK FOR 27 WK BEGINNING 1 WK POST CARCINOGEN DOSE (STUDY DURATION: 28 WK), Route [Carcinogen]: DERMAL, Route [Promoter]: DERMAL, Species: MOUSE, Strain/Sex: SENCAR/FEMALE): skin: tumor
- outcome (Carcinogen: 7,12-DIMETHYLBENZ[A]ANTHRACENE, 57-97-6, Doses [Carcinogen]: 4, 20, 100 NMOL IN 100 µL ACETONE ONCE, Doses [Carcinogen]: 4, 20, 100 NMOL IN 100 µL ACETONE ONCE, Doses [Promoter]: 3.24 NMOL/100 µL ACETONE 2/WK BEGINNING 2 WK POST CARCINOGEN DOSE AND CONTINUING FOR 24 WK (STUDY DURATION: 27 WK), Route [Carcinogen]: DERMAL, Route [Promoter]: DERMAL, Species: MOUSE, Strain/Sex: SENCAR/FEMALE): skin: tumor
- outcome (Carcinogen: 7,12-DIMETHYLBENZ[A]ANTHRACENE, 57-97-6, Doses [Carcinogen]: 10 NMOL APPLIED TO BACK ONCE, Doses [Promoter]: 1.5 NMOL 2/WK FOR 19 WK BEGINNING 1 WK POST CARCINOGEN DOSE (STUDY DURATION: 40 WK), Route [Carcinogen]: DERMAL, Route [Promoter]: DERMAL, Species: MOUSE, Strain/Sex: HRA/SKH/FEMALE): skin: papilloma
- outcome (Carcinogen: 7,12-DIMETHYLBENZ[A]ANTHRACENE, 57-97-6, Doses [Carcinogen]: 20 NMOL IN ACETONE ONCE, Doses [Promoter]: 0, 0.2 ML OF 10 UG/ML SOLUTION IN ACETONE 2/WK FOR 51 WK (STUDY DURATION: 52 WK), Route [Carcinogen]: DERMAL, Route [Promoter]: DERMAL, Species: MOUSE, Strain/Sex: SENCAR/FEMALE): skin: squamous cell carcinoma
- outcome (Carcinogen: 7,12-DIMETHYLBENZ[A]ANTHRACENE, 57-97-6, Doses [Carcinogen]: 20 NMOL ONCE, Doses [Promoter]: 0, 1, 2, 5 UG IN 200 µL ACETONE 2/WK FOR 23 WK BEGINNING 1 WK POST CARCINOGEN DOSE (STUDY DURATION: 24 WK), Doses [Promoter]: 0, 1, 2, 5 UG IN 200 µL ACETONE 2/WK FOR 23 WK BEGINNING 1 WK POST CARCINOGEN DOSE (STUDY DURATION: 24 WK), Route [Carcinogen]: DERMAL, Route [Promoter]: DERMAL, Species: MOUSE, Strain/Sex: 129/SVEV/FEMALE): skin: tumor
- outcome (Carcinogen: 7,12-DIMETHYLBENZ[A]ANTHRACENE, 57-97-6, Doses [Carcinogen]: 100 NMOL ONCE, Doses [Promoter]: 0, 1, 2, 5 UG IN 200 µL ACETONE 2/WK FOR 23 WK BEGINNING 1 WK POST CARCINOGEN DOSE (STUDY DURATION: 24 WK), Doses [Promoter]: 0, 1, 2, 5 UG IN 200 µL ACETONE 2/WK FOR 23 WK BEGINNING 1 WK POST CARCINOGEN DOSE (STUDY DURATION: 24 WK), Route [Carcinogen]: DERMAL, Route [Promoter]: DERMAL, Species: MOUSE, Strain/Sex: 129/SVEV/FEMALE): skin: tumor
- outcome (Carcinogen: 7,12-DIMETHYLBENZ[A]ANTHRACENE, 57-97-6, Doses [Carcinogen]: 100 NMOL ONCE, Doses [Promoter]: 10 NMOL 2/WK FOR 24 WK BEGINNING 1 WK POST CARCINOGEN DOSE (STUDY DURATION: 25 WK), Route [Carcinogen]: DERMAL, Route [Promoter]: DERMAL, Species: NMRI/FEMALE G, Strain/Sex: NMRI/FEMALE): skin: tumor
- outcome (Carcinogen: 7,12-DIMETHYLBENZ[A]ANTHRACENE, 57-97-6, Doses [Carcinogen]: 200 NMOL IN 100 µL ACETONE ONCE, Doses [Promoter]: 0, 5 NMOL IN 100 µL ACETONE 2/WK FOR 20 WK BEGINNING 1 WK POST CARCINOGEN DOSE (STUDY DURATION: 21 WK), Route [Carcinogen]: DERMAL, Route [Promoter]: DERMAL, Species: MOUSE, Strain/Sex: CD-1/FEMALE): skin: papilloma
- outcome (Carcinogen: 7-FLUOROBENZO[B]FLUORANTHENE, 89883-22-7, Doses [Carcinogen]: 10, 40, 120, 400 NMOL (TOTAL DOSE) APPLIED 1/2 D FOR 10 SUBDOSES, Doses [Carcinogen]: 10, 40, 120, 400 NMOL (TOTAL DOSE) APPLIED 1/2 D FOR 10 SUBDOSES, Doses [Promoter]: 0, 2.5 UG IN 100 µL ACETONE 3/WK FOR 20 WK BEGINNING 10 D POST CARCINOGEN TREATMENT (STUDY DURATION: 22 WK), Route [Carcinogen]: DERMAL, Route [Promoter]: DERMAL, Species: MOUSE, Strain/Sex: CRL:CD-1/FEMALE): skin: tumor
- outcome (Carcinogen: 7-METHYLBENZ[A]ANTHRACENE-3,4-DIOL, 175614-82-1, Doses [Carcinogen]: 200, 400 NMOL ONCE, Doses [Promoter]: 0, 3.4 NMOL 2/WK FOR 19 WK BEGINNING 2 WK POST CARCINOGEN DOSE (STUDY DURATION: 21 WK), Route [Carcinogen]: DERMAL, Route [Promoter]: DERMAL, Species: MOUSE, Strain/Sex: SENCAR/FEMALE): skin: papilloma
- outcome (Carcinogen: 8-METHYLBENZO[K]FLUORANTHENE, 95741-54-1, Doses [Carcinogen]: 4 UMOL (TOTAL DOSE) ADMINISTERED IN 10 SUBDOSES 1/2 D, Doses [Promoter]: 2.5 UG IN 0.1 ML ACETONE 3/WK FOR 30 WK BEGINNING 10 D POST CARCINOGEN TREATMENT (STUDY DURATION: 33 WK), Route [Carcinogen]: DERMAL, Route [Promoter]: DERMAL, Species: MOUSE, Strain/Sex: CRL:CD-1/FEMALE): skin: tumor
- outcome (Carcinogen: 9-FLUORO-7,12-DIMETHYLBENZ[A]ANTHRACENE-3,4-DIOL, 175614-88-7, Doses [Carcinogen]: 4, 10 NMOL ONCE, Doses [Promoter]: 0, 3.4 NMOL 2/WK FOR 19 WK BEGINNING 2 WK POST CARCINOGEN DOSE (STUDY DURATION: 21 WK), Route [Carcinogen]: DERMAL, Route [Promoter]: DERMAL, Species: MOUSE, Strain/Sex: SENCAR/FEMALE): skin: papilloma
- outcome (Carcinogen: 9-FLUORO-7-METHYLBENZ[A]ANTHRACENE-3,4-DIOL, 175614-83-2, Doses [Carcinogen]: 200, 400 NMOL ONCE, Doses [Promoter]: 0, 3.4 NMOL 2/WK FOR 19 WK BEGINNING 2 WK POST CARCINOGEN DOSE (STUDY DURATION: 21 WK), Route [Carcinogen]: DERMAL, Route [Promoter]: DERMAL, Species: MOUSE, Strain/Sex: SENCAR/FEMALE): skin: papilloma
- outcome (Carcinogen: 9-FLUORO-12-METHYLBENZ[A]ANTHRACENE-3,4-DIOL, 175614-86-5, Doses [Carcinogen]: 200, 400 NMOL ONCE, Doses [Promoter]: 0, 3.4 NMOL 2/WK FOR 19 WK BEGINNING 2 WK POST CARCINOGEN DOSE (STUDY DURATION: 21 WK), Route [Carcinogen]: DERMAL, Route [Promoter]: DERMAL, Species: MOUSE, Strain/Sex: SENCAR/FEMALE): skin: papilloma
- outcome (Carcinogen: 9-METHYLBENZO[K]FLUORANTHENE, 95741-55-2, Doses [Carcinogen]: 4 UMOL (TOTAL DOSE) ADMINISTERED IN 10 SUBDOSES 1/2 D, Doses [Promoter]: 2.5 UG IN 0.1 ML ACETONE 3/WK FOR 30 WK BEGINNING 10 D POST CARCINOGEN TREATMENT (STUDY DURATION: 33 WK), Route [Carcinogen]: DERMAL, Route [Promoter]: DERMAL, Species: MOUSE, Strain/Sex: CRL:CD-1/FEMALE): skin: tumor
- outcome (Carcinogen: 10-FLUORO-7,12-DIMETHYLBENZ[A]ANTHRACENE-3,4-DIOL, 175614-89-8, Doses [Carcinogen]: 4, 10 NMOL ONCE, Doses [Promoter]: 0, 3.4 NMOL 2/WK FOR 19 WK BEGINNING 2 WK POST CARCINOGEN DOSE (STUDY DURATION: 21 WK), Route [Carcinogen]: DERMAL, Route [Promoter]: DERMAL, Species: MOUSE, Strain/Sex: SENCAR/FEMALE): skin: papilloma
- outcome (Carcinogen: 10-FLUORO-7-METHYLBENZ[A]ANTHRACENE-3,4-DIOL, 175614-84-3, Doses [Carcinogen]: 200, 400 NMOL ONCE, Doses [Promoter]: 0, 3.4 NMOL 2/WK FOR 19 WK BEGINNING 2 WK POST CARCINOGEN DOSE (STUDY DURATION: 21 WK), Route [Carcinogen]: DERMAL, Route [Promoter]: DERMAL, Species: MOUSE, Strain/Sex: SENCAR/FEMALE): skin: papilloma
- outcome (Carcinogen: 10-FLUORO-12-METHYLBENZ[A]ANTHRACENE-3,4-DIOL, 175614-87-6, Doses [Carcinogen]: 200, 400 NMOL ONCE, Doses [Promoter]: 0, 3.4 NMOL 2/WK FOR 19 WK BEGINNING 2 WK POST CARCINOGEN DOSE (STUDY DURATION: 21 WK), Route [Carcinogen]: DERMAL, Route [Promoter]: DERMAL, Species: MOUSE, Strain/Sex: SENCAR/FEMALE): skin: papilloma
- outcome (Carcinogen: 10-FLUOROBENZO[J]FLUORANTHENE, 129286-37-9, Doses [Carcinogen]: 1, 2 UMOL (TOTAL DOSE) ADMINISTERED IN SUBDOSES 1/2 D, Doses [Promoter]: 2.5 UG IN 100 µL ACETONE 3/WK FOR 20 WK BEGINNING 10 D POST LAST CARCINOGEN DOSE (STUDY DURATION: 27 WK), Route [Carcinogen]: DERMAL, Route [Promoter]: DERMAL, Species: MOUSE, Strain/Sex: CD-1/FEMALE): skin: tumor
- outcome (Carcinogen: 12-METHYLBENZ[A]ANTHRACENE-3,4-DIOL, 175614-85-4, Doses [Carcinogen]: 200, 400 NMOL ONCE, Doses [Promoter]: 0, 3.4 NMOL 2/WK FOR 19 WK BEGINNING 2 WK POST CARCINOGEN DOSE (STUDY DURATION: 21 WK), Route [Carcinogen]: DERMAL, Route [Promoter]: DERMAL, Species: MOUSE, Strain/Sex: SENCAR/FEMALE): skin: papilloma
